In the supplement of paper PMC4862054:

Assays:
Test in all cases: normalised response (% of control), CellTiter-Glo; higher = more viable cells (100 = DMSO, 0 = benzethonium chloride kill control)
Conditions in all cases: incubation time: 72 h
[1] = test system: BT-474
Method in brief: (§1)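 Compound was dispensed into 384-well plates at 5 concentrations in 10-fold steps spanning a 10,000-fold range specific to that compound. Breast cancer cell lines were added as 20 µl suspension and left for 72 h before CellTox Green fluorescence (485/520 nm) and then CellTiter-Glo luminescence, read after 10 min at room temperature. Each reported value is the normalised signal at one concentration, with 0.1 % DMSO set at 100 and a positive kill control at 0 on each plate.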

[2] = test system: CAL-51
Method in brief: as §1

[3] = test system: CAL-148
Method in brief: as §1

[4] = test system: MDA-MB-468
Method in brief: as §1

[5] = test system: HCC1143
Method in brief: as §1

[6] = test system: MDA-MB-436
Method in brief: as §1

[7] = test system: CAL-85-1
Method in brief: as §1

[8] = test system: HDQ-P1
Method in brief: as §1

[9] = test system: SK-BR-3
Method in brief: as §1

[10] = test system: MFM-223
Method in brief: as §1

[11] = test system: HCC1937
Method in brief: as §1

[12] = test system: MCF-10A
Method in brief: as §1

[13] = test system: Hs578T
Method in brief: as §1

[14] = test system: CAL-120
Method in brief: as §1

[15] = test system: DU-4475
Method in brief: as §1

[16] = test system: MDA-MB-453
Method in brief: as §1

[17] = test system: MDA-MB-231
Method in brief: as §1

[18] = test system: BT-549
Method in brief: as §1

[19] = test system: HCC1599
Method in brief: as §1

Structure (SMILES)	normalised response [1]	normalised response [2]	normalised response [3]	normalised response [4]	normalised response [5]	normalised response [6]	normalised response [7]	normalised response [8]	normalised response [9]	normalised response [10]	normalised response [11]	normalised response [12]	normalised response [13]	normalised response [14]	normalised response [15]	normalised response [16]	normalised response [17]	normalised response [18]	normalised response [19]
CN(N=O)C(=O)N[C@@H](C=O)[C@@H](O)[C@H](O)[C@H](O)CO [Streptozocin] (10 nM)	109%	77.4%	108%	114%	105%	98.1%	98.9%	102%	102%	108%	109%	105%	104%	100%	106%	106%	104%		
NC(=O)Nc1cc(-c2cccc(F)c2)sc1C(=O)N[C@H]1CCCNC1 [AZD7762] (0.1 nM)	105%	77%	102%	100%	98.4%	97.5%	98.4%	106%	105%	109%	94.3%	98.2%	99.2%	105%	108%	99.9%	105%	105%	89.9%
CN[C@@H]1C[C@H]2O[C@@](C)([C@@H]1OC)n1c3ccccc3c3c4c(c5c6ccccc6n2c5c31)C(=O)N[C@H]4O [UCN-01] (10 nM)	83.8%	106%	108%	97.3%	95.9%	106%	95.1%	96.6%		102%	94.3%	90.5%	92.4%	80.2%	101%	91.8%	81.1%	98.4%	94%
CS(=O)(=O)c1ccc(C2=C(c3ccccc3)C(=O)OC2)cc1 [Rofecoxib] (1 nM)	103%	69.4%	108%	108%	110%	103%	98.4%	101%	112%	111%	107%	114%	104%	98.6%	106%	98.5%	104%	106%	99.1%
O=C(O)c1ccc(-c2c[nH]c3ncc(-c4ccccc4)cc23)cc1C1CCCC1 (10 nM)	91.8%	105%	90.4%	96%	102%	95.1%	96.3%	95.9%		94%	101%	95.9%	99.6%	95.3%	99.2%	91.8%	94%	98.7%	108%
Cc1ccc(-n2nc(C(C)(C)C)cc2NC(=O)Nc2ccc(OCCN3CCOCC3)c3ccccc23)cc1 [Doramapimod] (10 nM)	93.5%	121%	80.3%	94%	98.3%	98.1%	96%	95.5%		89.5%	91.7%	90.7%	101%	94.5%	98.3%	85.8%	96.3%	99.3%	103%
CCC(C)(C)C(=O)O[C@H]1C[C@@H](C)C=C2C=C[C@H](C)[C@H](CC[C@@H]3C[C@@H](O)CC(=O)O3)[C@H]21 [Simvastatin] (10 nM)		115%	103%	103%	98.7%	98.1%	96.2%	103%		102%		108%	96.3%	96%	104%	98.3%	99.2%		
CC(=O)Nc1ccc(C(=O)Nc2ccccc2N)cc1 [Tacedinaline] (1 nM)	105%	124%	95.3%	98.3%	99.5%	101%	95.8%	98.9%	97.1%	101%	92.7%	93.5%	96%	97.9%	97.6%	103%	97.6%	96.2%	109%
CCCCCCCCCCCCCCCCCCOP(=O)([O-])OC1CC[N+](C)(C)CC1 [Perifosine] (2.5 nM)	104%	81%	95.9%	97.4%	102%	95.2%	101%	108%	92.8%	92.8%	101%	98.4%	98.9%	102%	94.7%	101%	100%	99.5%	61.5%
C[C@@H](Oc1cc(-c2cnn(C3CCNCC3)c2)cnc1N)c1c(Cl)ccc(F)c1Cl [Crizotinib] (0.1 nM)	101%	82.4%	102%	91.7%	99.3%	96.7%	92.6%	96.7%	81.6%	103%	100%	95.6%	96.2%	102%	106%	111%	102%	104%	82%
Clc1ccc(Nc2nnc(Cc3ccncc3)c3ccccc23)cc1 [Vatalanib] (10 nM)	105%	127%	109%	102%	102%	107%	100%	102%		102%	102%	105%	100%	96%	106%	104%	104%	95%	89.6%
CNCc1ccc(-c2[nH]c3cc(F)cc4c3c2CCNC4=O)cc1 [Rucaparib] (10 nM)	93.6%	112%	82.7%	92.3%	100%	99.5%	98.9%	96.8%		93.5%	102%	98.4%	98.5%	94.2%	98.3%	93.9%	97.2%	96.9%	102%
CCC(C)(C)C(=O)O[C@H]1C[C@@H](C)C=C2C=C[C@H](C)[C@H](CC[C@@H]3C[C@@H](O)CC(=O)O3)[C@H]21 [Simvastatin] (1 nM)		114%	102%	100%	102%		96.8%	98.5%	105%		103%	107%	103%	100%	102%	106%	94.8%	98.9%	111%
CCC1=C[C@@H]2CN(C1)Cc1c([nH]c3ccccc13)[C@@](C(=O)OC)(c1cc3c(cc1OC)N(C)[C@H]1[C@@](O)(C(=O)OC)[C@H](OC(C)=O)[C@]4(CC)C=CCN5CC[C@]31[C@@H]54)C2 [Vinorelbine] (10 nM)	99.3%	87.5%	107%	95.8%	97.5%	94.4%	98.1%	99.4%		106%	99.1%	102%	101%	96.6%	101%	80.7%	101%	97.6%	84.7%
CC(C)Cn1cnc2c(N)nc3ccccc3c21 [Imiquimod] (2.5 nM)	104%	114%	107%	104%	103%	95.8%	98.4%	97.2%		105%	96.2%	105%	111%	103%	109%	104%	103%	95%	113%
COc1cc2ncnc(Nc3ccc(F)c(Cl)c3)c2cc1NC(=O)/C=C/CN1CCCCC1 [Dacomitinib] (1 nM)	103%	108%	112%	103%	106%	97.8%	91.2%	90.7%		101%	94.3%	97.7%	105%	100%	100%	93.8%	101%	99.8%	102%
COc1cc([C@@H]2c3cc4c(cc3[C@@H](O[C@@H]3O[C@@H]5CO[C@@H](C)O[C@H]5[C@H](O)[C@H]3O)[C@H]3COC(=O)[C@H]23)OCO4)cc(OC)c1O [Etoposide] (10 nM)	103%	98.9%	106%	98.6%	107%	106%	102%	99.3%		109%	103%	113%	104%	103%	104%	109%	105%	97.8%	99.7%
C#Cc1cccc(Nc2ncnc3cc(OCCOC)c(OCCOC)cc23)c1 [Erlotinib] (10 nM)	99.9%	74.3%	113%	105%	106%	103%	102%	91.7%		111%	96%	98.8%	110%	102%	105%	107%	103%	97.3%	101%
Cn1c(Nc2ccc(C(F)(F)F)cc2)nc2cc(Oc3ccnc(-c4ncc(C(F)(F)F)[nH]4)c3)ccc21 [RAF265] (1 nM)	106%	111%	112%	104%	109%	105%	104%	100%		114%	103%	112%	105%	104%	109%	127%	98.5%	96.7%	102%
CN(C)/N=N/c1[nH]cnc1C(N)=O [Dacarbazine] (10 nM)	105%	103%	102%	106%	103%	101%	102%	101%		104%	96.3%	101%	105%	98.3%	101%	111%	104%	101%	85.9%
CS(=O)(=O)c1ccc(C2=C(c3ccccc3)C(=O)OC2)cc1 [Rofecoxib] (10 nM)	103%	73%	115%	104%	106%	102%	102%	102%		113%	104%	107%	114%	102%	105%	110%	102%	89.7%	89%
